{"source": "patent US12053456B2", "about": "“Pharmaceutical compositions for combination therapy” (GENFIT, priority 2017, dated 2024)", "tested_on": "α-SMA in TGFβ1-induced hHSC", "assay": "α-SMA ELISA in TGFβ1-activated human primary hepatic stellate cells (single agents and combination matrix, EOB/EOHSA)", "assay_type": "cell-based", "details": "single agent, 1 hour preincubation, TGFβ1 1 ng/ml, 48 hours", "description": "Serum-deprived HSC were preincubated for 1 hour with Elafibranor (A) or Nitazoxanide (B), or Bezafibrate (C) before the activation with the profibrogenic cytokine TGFβ1 (1 ng/ml). After 48 hours of incubation, the expression of α-SMA was measured by ELISA. The obtained values were transformed into percentage inhibition over TGFβ1 control. Data are presented as mean (triplicates)±standard deviation (SD)]. The curve fitting and the calculation of half maximal inhibitory concentration (IC50) were performed with XLFit software 5.3.1.3.\nCombinations were tested in a dose-response matrix format and analyzed according to the excess over Bliss (EOB) additivism model. Dilution series of Elafibranor (row) and Nitazoxanide (column) were prepared, including their respective DMSO controls. The resulting mixes were added to serum-deprived HSC, 1 hour prior to the activation with the profibrogenic cytokine TGFβ1 (1 ng/ml). […] (B) EOB scores were calculated as described in Materials and Methods. […] The total EOB score including all combinations was also calculated. […]\nCombinations were tested in a dose-response matrix format and analyzed according to the excess over Bliss (EOB) additivism model. […] Percentage of α-SMA inhibition over the TGFβ1 control for all combination pairs was calculated. EOB scores were calculated as described in Materials and Methods. […]"}
{"smiles": "O=C(Nc1ncc([N+](=O)[O-])s1)c1ccccc1O", "note": "[TZ, tizoxanide]", "values": [{"measurement": "antifibrotic activity (α-SMA) in TGFβ-induced hHSC", "result": "profile similar to the parent drug"}]}
